Assays:
Test in all cases: relative viability (nuclei count vs DMSO), 5 days (fraction); higher = more cells survive
[1] = system: NCI-H838
How it was run: (§1)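 Each reported value is a median over duplicate plates. It expresses relative viability: treated-well nuclei count divided by vehicle-well nuclei count. Lung cancer cell lines in 1536-well plates were dosed by pin tool a day after seeding, alone with one drug or with a fixed anchor-drug dose plus five library-drug doses (not always all listed) in √10 steps, and nuclei were counted after 5 days.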

[2] = system: NCI-H650
How it was run: as §1

[3] = system: HCC-44
How it was run: as §1

[4] = system: NCI-H358
How it was run: as §1

[5] = system: LC-2-ad
How it was run: as §1

[6] = system: NCI-H1355
How it was run: as §1

[7] = system: NCI-H1915
How it was run: as §1

[8] = system: HCC-15
How it was run: as §1

[9] = system: NCI-H2347
How it was run: as §1

[10] = system: ABC-1
How it was run: as §1

[11] = system: LU99A
How it was run: as §1

[12] = system: UMC-11
How it was run: as §1

[13] = system: NCI-H2023
How it was run: as §1

[14] = system: HOP-62
How it was run: as §1

[15] = system: NCI-H2085
How it was run: as §1

[16] = system: PC-14
How it was run: as §1

[17] = system: NCI-H1651
How it was run: as §1

[18] = system: COR-L23
How it was run: as §1

[19] = system: NCI-H1993
How it was run: as §1

[20] = system: SW 1573
How it was run: as §1

[21] = system: NCI-H2126
How it was run: as §1

[22] = system: HARA
How it was run: as §1

[23] = system: EPLC-272H
How it was run: as §1

SMILES: COc1nc(C)cnc1NS(=O)(=O)c1cccnc1-c1ccc(-c2nnco2)cc1 [Zibotentan] + CS(=O)(=O)N1CCN(Cc2cc3nc(-c4cccc5[nH]ncc45)nc(N4CCOCC4)c3s2)CC1 [Pictilisib] (partner 1 µM)
- relative viability ([1]; first compound 0.08 µM): 0.451
- relative viability ([1]; first compound 0.253 µM): 0.406
- relative viability ([1]; first compound 0.8 µM): 0.582
- relative viability ([1]; first compound 2.53 µM): 0.518
- relative viability ([2]; first compound 0.08 µM): 0.921
- relative viability ([2]; first compound 0.253 µM): 0.773
- relative viability ([2]; first compound 0.8 µM): 0.743
- relative viability ([2]; first compound 2.53 µM): 0.821
- relative viability ([3]; first compound 0.08 µM): 0.591
- relative viability ([3]; first compound 0.253 µM): 0.625
- relative viability ([3]; first compound 0.8 µM): 0.607
- relative viability ([3]; first compound 2.53 µM): 0.784
- relative viability ([4]; first compound 0.08 µM): 0.318
- relative viability ([4]; first compound 0.8 µM): 0.395
- relative viability ([4]; first compound 2.53 µM): 0.378
- relative viability ([5]; first compound 0.08 µM): 0.48
- relative viability ([5]; first compound 0.253 µM): 0.406
- relative viability ([5]; first compound 0.8 µM): 0.527
- relative viability ([5]; first compound 2.53 µM): 0.435
- relative viability ([6]; first compound 0.08 µM): 0.403
- relative viability ([6]; first compound 0.253 µM): 0.424
- relative viability ([6]; first compound 0.8 µM): 0.431
- relative viability ([6]; first compound 2.53 µM): 0.436
- relative viability ([7]; first compound 0.08 µM): 1.01
- relative viability ([7]; first compound 0.253 µM): 0.955
- relative viability ([7]; first compound 0.8 µM): 0.873
- relative viability ([7]; first compound 2.53 µM): 0.96
- relative viability ([8]; first compound 0.08 µM): 0.763
- relative viability ([8]; first compound 0.253 µM): 0.667
- relative viability ([8]; first compound 0.8 µM): 0.687
- relative viability ([8]; first compound 2.53 µM): 0.817
- relative viability ([9]; first compound 0.08 µM): 0.601
- relative viability ([9]; first compound 0.253 µM): 0.547
- relative viability ([9]; first compound 0.8 µM): 0.621
- relative viability ([9]; first compound 2.53 µM): 0.769
- relative viability ([10]; first compound 0.08 µM): 0.686
- relative viability ([10]; first compound 0.253 µM): 0.623
- relative viability ([10]; first compound 0.8 µM): 0.772
- relative viability ([10]; first compound 2.53 µM): 0.646
- relative viability ([11]; first compound 0.08 µM): 0.362
- relative viability ([11]; first compound 0.253 µM): 0.314
- relative viability ([11]; first compound 0.8 µM): 0.343
- relative viability ([11]; first compound 2.53 µM): 0.371
- relative viability ([12]; first compound 0.08 µM): 0.746
- relative viability ([12]; first compound 0.253 µM): 0.809
- relative viability ([12]; first compound 0.8 µM): 0.837
- relative viability ([12]; first compound 2.53 µM): 0.777
- relative viability ([13]; first compound 0.08 µM): 0.279
- relative viability ([13]; first compound 0.253 µM): 0.127
- relative viability ([13]; first compound 0.8 µM): 0.226
- relative viability ([13]; first compound 2.53 µM): 0.26
- relative viability ([14]; first compound 0.08 µM): 0.687
- relative viability ([14]; first compound 0.253 µM): 0.769
- relative viability ([14]; first compound 0.8 µM): 0.752
- relative viability ([14]; first compound 2.53 µM): 0.851
- relative viability ([15]; first compound 0.08 µM): 0.477
- relative viability ([15]; first compound 0.253 µM): 0.495
- relative viability ([15]; first compound 0.8 µM): 0.477
- relative viability ([15]; first compound 2.53 µM): 0.517
- relative viability ([16]; first compound 0.08 µM): 0.91
- relative viability ([16]; first compound 0.253 µM): 0.8
- relative viability ([16]; first compound 0.8 µM): 0.793
- relative viability ([16]; first compound 2.53 µM): 0.628
- relative viability ([17]; first compound 0.08 µM): 0.742
- relative viability ([17]; first compound 0.253 µM): 0.427
- relative viability ([17]; first compound 0.8 µM): 0.705
- relative viability ([17]; first compound 2.53 µM): 0.602
- relative viability ([18]; first compound 0.08 µM): 0.728
- relative viability ([18]; first compound 0.253 µM): 0.662
- relative viability ([18]; first compound 0.8 µM): 0.757
- relative viability ([18]; first compound 2.53 µM): 0.921
- relative viability ([19]; first compound 0.253 µM): 0.736
- relative viability ([19]; first compound 0.8 µM): 0.748
- relative viability ([19]; first compound 2.53 µM): 0.796
- relative viability ([20]; first compound 0.08 µM): 0.53
- relative viability ([20]; first compound 0.253 µM): 0.533
- relative viability ([20]; first compound 0.8 µM): 0.557
- relative viability ([20]; first compound 2.53 µM): 0.478
- relative viability ([21]; first compound 0.08 µM): 0.525
- relative viability ([21]; first compound 0.253 µM): 0.525
- relative viability ([21]; first compound 0.8 µM): 0.465
- relative viability ([21]; first compound 2.53 µM): 0.474
- relative viability ([22]; first compound 0.08 µM): 0.443
- relative viability ([22]; first compound 0.253 µM): 0.438
- relative viability ([22]; first compound 0.8 µM): 0.351
- relative viability ([22]; first compound 2.53 µM): 0.57
- relative viability ([23]; first compound 0.08 µM): 0.363
- relative viability ([23]; first compound 0.253 µM): 0.289
- relative viability ([23]; first compound 0.8 µM): 0.239
- relative viability ([23]; first compound 2.53 µM): 0.297

Reference: the supplement of paper PMC10307832
